Measured values published in patent US8575163B2, “Pyrrolopyridinylpyrimidin-2-ylamine derivatives” (Merck Patent GmbH, priority 2009, dated 2013).

biological target: T1, PDK1 (Homo sapiens, UniProt O15530); experiment: Test for the inhibition of PDK1 (flashplate, 33P-ATP); format: biochemical; settings: His6-PDK1 3.4 nM, 4 μM ATP, 30° C., 60 min
T1 construct: His6 (N)
T1 sequence (O15530 51-556 limits assumed): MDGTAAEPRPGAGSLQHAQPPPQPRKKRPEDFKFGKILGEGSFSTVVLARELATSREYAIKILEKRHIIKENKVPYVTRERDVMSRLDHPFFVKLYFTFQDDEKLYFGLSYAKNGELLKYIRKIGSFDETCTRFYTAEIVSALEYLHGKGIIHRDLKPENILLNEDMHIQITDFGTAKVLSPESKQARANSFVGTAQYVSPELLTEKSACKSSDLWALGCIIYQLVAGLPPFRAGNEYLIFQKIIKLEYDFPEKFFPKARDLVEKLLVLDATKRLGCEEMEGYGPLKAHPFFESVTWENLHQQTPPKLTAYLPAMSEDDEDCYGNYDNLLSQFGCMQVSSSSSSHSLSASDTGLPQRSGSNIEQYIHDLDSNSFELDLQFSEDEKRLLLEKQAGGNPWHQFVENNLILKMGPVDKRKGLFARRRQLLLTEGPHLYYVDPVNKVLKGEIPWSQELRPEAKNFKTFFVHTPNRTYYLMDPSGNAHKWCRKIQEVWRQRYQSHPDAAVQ
Experimental: The experimental batches are carried out in a flashplate system with 384 wells/microtitration plate.
In each case, the PDK1 sample His6-PDK1(1-50)(3.4 nM), the PDK1 substrate biotin-bA-bA-[…] (400 nM), 4 μM ATP (with 0.2 μCi of ^33 P-ATP/well) and the test substance in 50 μl of conventional experimental solution per well are incubated at 30° C. for 60 min. The test substances are employed in corresponding concentrations (if desired in a dilution series). The control is carried out without test substance. The reaction is stopped using standard methods and washed. The activity of the kinase is measured via the incorporated radioactivity in top count. In order to determine the non-specific kinase reaction (blank value), the experimental batches are carried out in the presence of 100 nM staurosporin.
The radioactivity (decompositions per minute) of the blank value (no use of test substance in the presence of staurosporin) is subtracted from all other radioactivity values. The controls (kinase activity without test substance) are set equal to 100 percent and all other radioactivity values (after subtracting the blank value) are expressed set in relation thereto (for example in % of the control).
[formula] IC50 values (50% inhibition) are determined with the aid of statistics programmes, such as, for example, RS1.

Row | Structure (SMILES) | IC50 [nM]
1 | CCC(OCOC)(c1cc(-c2c[nH]c3ncc(-c4cnn(C)c4)cc23)nc(N)n1)c1cccc(Cl)c1F (stereo not drawn) [A30, 4-[1-(3-chloro-2-fluorophenyl)-1-methoxymethoxypropyl]-6-[5-(1-methyl-1H-pyrazol-4-yl)-1H-pyrrolo[2,3-b]pyridin-3-yl]pyrimidin-2-ylamine] | 130
2 | Cn1cc(-c2cnc3[nH]cc(-c4cc(C(C)(O)c5ccc(CO)cc5)nc(N)n4)c3c2)cn1 (stereo not drawn) [A31, 1-{2-amino-6-[5-(1-methyl-1H-pyrazol-4-yl)-1H-pyrrolo[2,3-b]pyridin-3-yl]-pyrimidin-4-yl}-1-(4-hydroxymethylphenyl)ethanol] | 44
3 | CCC(OCOC)(c1cc(-c2c[nH]c3ncc(-c4cnn(C)c4)cc23)nc(N)n1)c1ccncc1F (stereo not drawn) [A32, 4-[1-(3-fluoropyridin-4-yl)-1-methoxymethoxypropyl]-6-[5-(1-methyl-1H-pyrazol-4-yl)-1H-pyrrolo[2,3-b]pyridin-3-yl]pyrimidin-2-ylamine] | 25
4 | CCC(OCOC)(c1ccncc1)c1cc(-c2c[nH]c3ncc(Br)cc23)nc(N)n1 (stereo not drawn) [A34, 4-(5-bromo-1H-pyrrolo[2,3-b]pyridin-3-yl)-6-(1-methoxymethoxy-1-pyridin-4-ylpropyl)pyrimidin-2-ylamine] | 170
5 | CCCC(OCOC)(c1ccncc1)c1cc(-c2c[nH]c3ncc(-c4cnn(C)c4)cc23)nc(N)n1 (stereo not drawn) [A36, 4-(1-methoxymethoxy-1-pyridin-4-ylbutyl)-6-[5-(1-methyl-1H-pyrazol-4-yl)-1H-pyrrolo[2,3-b]pyridin-3-yl]pyrimidin-2-ylamine] | 56
6 | CCC(OCOC)(c1cc(-c2c[nH]c3ncc(-c4cnn(C)c4)cc23)nc(N)n1)c1ccncc1F (stereo not drawn) [A37, 4-[1-(3-fluoropyridin-4-yl)-1-methoxymethoxypropyl]-6-[5-(1-methyl-1H-pyrazol-4-yl)-1H-pyrrolo[2,3-b]pyridin-3-yl]pyrimidin-2-ylamine] | 25
7 | CC(=O)N1CCN(c2ccc(-c3cnc4[nH]cc(-c5cc(C(C)(O)c6ccccc6)nc(N)n5)c4c3)cn2)CC1 (stereo not drawn) [A38, 1-[4-(5-{3-[2-amino-6-(1-hydroxy-1-phenylethyl)pyrimidin-4-yl]-1H-pyrrolo-[2,3-b]pyridin-5-yl}pyridin-2-yl)piperazin-1-yl]ethanone] | 140
8 | CC(O)(c1ccccc1)c1cc(-c2c[nH]c3ncc(-c4cnn(C(F)F)c4)cc23)nc(N)n1 (stereo not drawn) [A39, 1-{2-amino-6-[5-(1-difluoromethyl-1H-pyrazol-4-yl)-1H-pyrrolo[2,3-b]pyridin-3-yl]pyrimidin-4-yl}-1-phenylethanol] | 91
9 | CC(O)(c1ccccc1)c1cc(-c2c[nH]c3ncc(-c4cnn(C(F)F)c4)cc23)nc(N)n1 (stereo not drawn) [A40, 1-{2-amino-6-[5-(1-difluoromethyl-1H-pyrazol-4-yl)-1H-pyrrolo[2,3-b]pyridin-3-yl]pyrimidin-4-yl}-1-phenylethanol] | 54
10 | CC[C@@](O)(c1ccncc1)c1cc(-c2c[nH]c3ncc(-c4cnn(CC(=O)N5CCCCC5)c4)cc23)nc(N)n1 [A46, 2-(4-{3-[2-amino-6-((R)-1-hydroxy-1-pyridin-4-ylpropyl)pyrimidin-4-yl]-1H-pyrrolo[2,3-b]pyridin-5-yl}pyrazol-1-yl)-1-piperidin-1-ylethanone] | 55
11 | CC(O)(c1ccccc1)c1cc(-c2c[nH]c3ncc(-c4cnn(Cc5cccs5)c4)cc23)nc(N)n1 (stereo not drawn) [A47, 1-{2-amino-6-[5-(1-thiophen-2-ylmethyl-1H-pyrazol-4-yl)-1H-pyrrolo[2,3-b]-pyridin-3-yl]pyrimidin-4-yl}-1-phenylethanol] | 100
12 | CC(O)(c1ccccc1)c1cc(-c2c[nH]c3ncc(-c4cnn(S(C)(=O)=O)c4)cc23)nc(N)n1 (stereo not drawn) [A48, 1-{2-amino-6-[5-(1-methanesulfonyl-1H-pyrazol-4-yl)-1H-pyrrolo[2,3-b]pyridin-3-yl]pyrimidin-4-yl}-1-phenylethanol] | 140
13 | CC(O)(c1cccc(F)c1)c1cc(-c2c[nH]c3ncc(-c4ccc(CO)cc4)cc23)nc(N)n1 (stereo not drawn) [A49, 1-{2-amino-6-[5-(4-hydroxymethylphenyl)-1H-pyrrolo[2,3-b]pyridin-3-yl]-pyrimidin-4-yl}-1-(3-fluorophenyl)ethanol] | 36
14 | CC[C@@](OCOC)(c1cccc(F)c1)c1cc(-c2c[nH]c3ncc(Br)cc23)nc(N)n1 [A51, 4-(5-bromo-1H-pyrrolo[2,3-b]pyridin-3-yl)-6-[(R)-1-(3-fluorophenyl)-1-methoxymethoxypropyl]pyrimidin-2-ylamine] | 650
15 | CC[C@](OCOC)(c1cccc(F)c1)c1cc(-c2c[nH]c3ncc(Br)cc23)nc(N)n1 [A52, 4-(5-bromo-1H-pyrrolo[2,3-b]pyridin-3-yl)-6-[(S)-1-(3-fluorophenyl)-1-methoxymethoxypropyl]pyrimidin-2-ylamine] | > 30000
16 | CCC(OCOC)(c1cccc(F)c1)c1cc(-c2c[nH]c3ncc(Br)cc23)nc(N)n1 (stereo not drawn) [A54, 4-(5-bromo-1H-pyrrolo[2,3-b]pyridin-3-yl)-6-[1-(3-fluorophenyl)-1-methoxymethoxypropyl]pyrimidin-2-ylamine] | 1500
17 | CC(O)(c1cccc(F)c1)c1cc(-c2c[nH]c3ncc(-c4ccc(CC#N)cc4)cc23)nc(N)n1 (stereo not drawn) [A55, [4-(3-{2-amino-6-[1-(3-fluorophenyl)-1-hydroxyethyl]pyrimidin-4-yl}-1H-pyrrolo[2,3-b]pyridin-5-yl)phenyl]acetonitrile] | 75
18 | COCOC(C)(c1ccncc1)c1cc(-c2c[nH]c3ncc(Br)cc23)nc(N)n1 (stereo not drawn) [A56, 4-(5-bromo-1H-pyrrolo[2,3-b]pyridin-3-yl)-6-(1-methoxymethoxy-1-pyridin-4-ylethyl)pyrimidin-2-ylamine] | 150
19 | CC(O)(c1cccc(F)c1)c1cc(-c2c[nH]c3ncc(-c4cnn(CC(=O)N5CCCCC5)c4)cc23)nc(N)n1 (stereo not drawn) [A59, 2-[4-(3-{2-amino-6-[1-(3-fluorophenyl)-1-hydroxyethyl]pyrimidin-4-yl}-1H-pyrrolo[2,3-b]pyridin-5-yl)pyrazol-1-yl]-1-piperidin-1-ylethanone] | 69
20 | CC(O)(c1ccccc1)c1cc(-c2c[nH]c3ncc(-c4cnn(CCC(=O)NCCN)c4)cc23)nc(N)n1 (stereo not drawn) [A60, N-(2-aminoethyl)-3-(4-{3-[2-amino-6-(1-hydroxy-1-phenylethyl)pyrimidin-4-yl]-1H-pyrrolo[2,3-b]pyridin-5-yl}pyrazol-1-yl)propionamide] | 24
21 | CC(O)(c1ccncc1)c1cc(-c2c[nH]c3ncc(-c4cnn(CC(=O)N5CCCCC5)c4)cc23)nc(N)n1 (stereo not drawn) [A61, 2-(4-{3-[2-amino-6-(1-hydroxy-1-pyridin-4-ylethyl)pyrimidin-4-yl]-1H-pyrrolo-[2,3-b]pyridin-5-yl}pyrazol-1-yl)-1-piperidin-1-ylethanone] | 2.1
22 | CC(O)(c1ccncc1)c1cc(-c2c[nH]c3ncc(-c4cn[nH]c4)cc23)nc(N)n1 (stereo not drawn) [A62, 1-{2-amino-6-[5-(1H-pyrazol-4-yl)-1H-pyrrolo[2,3-b]pyridin-3-yl]pyrimidin-4-yl}-1-pyridin-4-ylethanol] | 2.8
23 | CC(C)(C)OC(=O)NCCNC(=O)CCn1cc(-c2cnc3[nH]cc(-c4cc(C(C)(O)c5ccccc5)nc(N)n4)c3c2)cn1 (stereo not drawn) [A63, tert-butyl {2-[3-(4-{3-[2-amino-6-(1-hydroxy-1-phenylethyl)pyrimidin-4-yl]-1H-pyrrolo[2,3-b]pyridin-5-yl}pyrazol-1-yl)propionylamino]ethyl}carbamate] | 110
24 | Cn1cc(-c2cnc3[nH]cc(-c4cc(C(C)(O)c5ccncc5)nc(N)n4)c3c2)cn1 (stereo not drawn) [A64, 1-{2-amino-6-[5-(1-methyl-1H-pyrazol-4-yl)-1H-pyrrolo[2,3-b]pyridin-3-yl]-pyrimidin-4-yl}-1-pyridin-4-ylethanol] | 3.3
25 | CC(O)(c1ccccc1)c1cc(-c2c[nH]c3ncc(-c4cnn(CCC(=O)N5CCC(O)C5)c4)cc23)nc(N)n1 (stereo not drawn) [A65, 3-(4-{3-[2-amino-6-(1-hydroxy-1-phenylethyl)pyrimidin-4-yl]-1H-pyrrolo-[2,3-b]pyridin-5-yl}pyrazol-1-yl)-1-(3-hydroxypyrrolidin-1-yl)propan-1-one] | 25
26 | CC(O)(c1ccccc1)c1cc(-c2c[nH]c3ncc(-c4cnn(CCC(=O)N5CCCCC5)c4)cc23)nc(N)n1 (stereo not drawn) [A66, 3-(4-{3-[2-amino-6-(1-hydroxy-1-phenylethyl)pyrimidin-4-yl]-1H-pyrrolo-[2,3-b]pyridin-5-yl}pyrazol-1-yl)-1-piperidin-1-ylpropan-1-one] | 91
27 | CC(O)(c1ccccc1)c1cc(-c2c[nH]c3ncc(-c4cnn(CCC(=O)N5CCOCC5)c4)cc23)nc(N)n1 (stereo not drawn) [A67, 3-(4-{3-[2-amino-6-(1-hydroxy-1-phenylethyl)pyrimidin-4-yl]-1H-pyrrolo-[2,3-b]pyridin-5-yl}pyrazol-1-yl)-1-morpholin-4-ylpropan-1-one] | 28
